Assay: Water solubility / water-dispersability, including FIG. 1 comparison
Format: physicochemical
Settings: dispersed in water, bottle A vs bottle B

Cc1coc2c1C(=O)C(=O)c1c-2ccc2c1CCCC2(C)C [known 90% Tan IIA, Tanshinone IIA]
Water-dispersability (FIG. 1): insoluble in water

Reference: patent US20210379543A1, “PROCESS FOR PRODUCING A NANO-TAN IIA MICROEMULSION SYSTEM” (Wakamono Corporation, priority 2021, published 2021)
